In patent publication US7718170B2, “Alkaline phosphatase compositions to reduce skin cancer” (Essential Skincare, LLC, priority 2006, dated 2010):

Experiments:
[1] = tested on: B16 mouse melanoma; assay: B16 mouse melanoma tumor growth (tumor volume by calipers); assay type: in vivo; conditions: subcutaneous injection
[2] = tested on: B16 mouse melanoma; assay: as above; assay type: in vivo; conditions: for Tumor volumes; Day 8 after tumor transplantation: local cream 150 mg per application on days 8, 11, 13, 15, 18, 20, day 8 = start, mean of 5 animals
Description: The B16 mouse melanoma tumors were developed in first generation hybrid BDF1 (C57 B1 female×DBA/2 male) adult female mice kept at specified pathogen free (SPF) hygienic level. These mice have the complete immune system. The human H-168 melanoma tumors were developed in the homozygous line of C.B.-171 cr scid/scid mice (with severely compromised immune deficiency) which is an inbred mutant strain. In each case, tumor tissue fragments of about 0.1-cm^3 were surgically implanted subcutaneously into the intrascapular region to develop the tumors. Each tumor fragment contained 1-1.5×10^6 cells. The animals were kept in macrolon cages on ventilated rack at 22-24° C. (50-60% humidity) with lighting regimen of 12/12 h light/dark. The animals had free access to tap water and were fed with sterilized standard diet (Charles River VRF1, Germany) ad libitum. The animals were taken care of according to the “Guiding Principle for the care and use of Animals” based upon the Helsinki declaration and they were approved by the local ethical committee.
The mice bearing the rapidly growing B16 melanoma tumors were used after 8-11 days of tumor transplantation, while mice bearing the slower growing H-168 melanoma were used after 17 days of transplantation. In either case, when the tumor-bearing mice were used, the size of the tumors was in the 0.3-0.6 cm^3 range; animals were selected so that in the same treatment group the difference in tumor size was no greater than 0.1 cm^3 PALP, TF, or AT were used topically in a cream alone or in combination; in each case, 150-mg cream was applied on the tumor and the vicinity of tumor area (with about 0.3-0.5 cm margin). The tumor volume was determined by using calipers; this technique is well known to one having ordinary skill in the art. Tumor volume was calculated according to the generally accepted formula: V=a^2×b×π/6, where “a” and “b” mean the shortest and longest diameter, respectively, of the measured tumor.
The aggressive B16 mouse melanoma model was developed as described under Example 3. On day 11 after transplantation of tumor cells, the animals were either remained untreated (Group 1) or were treated with 15 mg/kg highly purified PALP via subcutaneous administration (Group 2). In Group 3, the tumors were treated locally with 150-mg of cream containing 4 mg commercial PALP in 1 g of Vaselinum cholesteratum. In Group 4, the animals were treated simultaneously locally with commercial PALP containing cream and via subcutaneous injection with highly purified PALP. Each treatment was performed once daily for seven consecutive days (i.e., treatments were terminated on day 18). Locally administered PALP preparation, and to a somewhat smaller extent injected purified PALP, inhibited the growth of B16 melanoma. The inhibitory effects remained significant even on day 23, 5 days after the last treatment. When PALP preparations were simultaneously administered via both routes, the combined effects were greater than the individual effects. […] Alternatively, optimal effects could require the presence of all 3 proteins. Experiments presented later confirm that the inhibitory effects of purified PALP on melanoma growth are greater in the simultaneous presence of TF and AT.
The B16 mouse melanoma model was developed as described under Example 3. On day 8 after transplantation of tumor cells, the animals either remained untreated (Group 1) or in other animal groups the tumors were treated locally with creams (150 mg per application) containing active components as follows: Group 2, 0.4 mg of purified PALP per 1-g Vaseline; Group 3, 0.5 mg of purified partially iron-saturated TF per 1-g Vaseline; Group 4, 0.4 mg of PALP+0.5 mg TF per 1-g Vaseline; Group 5, 1.2 mg of purified AT per 1-g Vaseline; Group 6, 0.4 mg of PALP+0.5 mg TF+1.2 mg of purified AT per 1-g Vaseline; and Group 7, Vaselinum cholesteratum alone. Each treatment was performed once daily on days 8, 11, 13, 15, 18 and 20. […]

[3] = tested on: B16 melanoma; assay: Lung metastasis of B16 melanoma (macroscopic lung colonies); assay type: in vivo, mouse; conditions: treatments from day 11, daily, counted 21 days after starting the treatments, 7 animals, parentheses = smallest and highest numbers in the group
Experimental: B16 melanoma cells are highly metastatic that are known to preferably form metastatic colonies in the lung. The goal of this experiment was to determine if any of the components present in commercial PALP or the mode of application affect the metastatic process.
The B16 melanoma model described under Example 3 was used. The treatments of mice bearing the rapidly growing B16 melanoma were started 11 days after tumor transplantation; additional treatments were performed on each day for six consecutive days. In each experimental group seven animals were used. In the first group, animal tumors were treated locally with 200 mg Vaseline (control group). In the second group, animal tumors were locally treated with 200 mg Vaseline cream containing 4 mg commercial PALP per 1-g Vaseline. In the third group, animals were subcutaneously injected commercial PALP (1.5 mg per animal or 60 mg per kg). In the fourth group, animals were treated with commercial PALP both locally and subcutaneously. In the fifth group, animals were subcutaneously injected highly purified PALP (0.35 mg per animal or 14 mg per 1 kg). In the sixth group, animals were subcutaneously injected partially iron-saturated human TF (0.4 mg per animal or 16 mg per 1 kg). In the seventh group, animal tumors were locally treated with 200 mg Vaseline cream containing 1.0 mg human TF per 1 g Vaseline. In the last group, the tumors were untreated during the entire period of experiment. The macroscopic colonies were counted in the lung (7 animals in each group) 21 days after starting the treatments. The data are presented in TABLE 5; numbers in the parentheses indicate the smallest and highest numbers of metastatic lung colonies in the same group.

[4] = tested on: fibroblast; assay: Fibroblast proliferation in vitro after pre-heating of TF; assay type: cell-based; conditions: pre-heating at up to 75° C. for 30 min
Experimental: The stimulatory effects of TF on fibroblast proliferation in vitro are not altered by pre-heating it at up to 75° C. for 30 min. Thus, pre-heating of TF-containing compositions to enhance the effects of other components, such as PALP and AT will be unlikely to alter other effects of TF such as inhibition of melanoma growth.

[5] = Organ pathology in mice after repeated injection; assay type: in vivo; conditions: 16 mg/kg injected 15-times over a 3 weeks period
[6] = subcutaneous injection, CCDTHT 4.6 mg/kg once daily day 11-22, mean of 5 mice
[7] = local cream 150 mg per application on days 8, 11, 13, 15, 18, 20, mean of 5 animals
[8] = BDF1 mice, 5 days after the last treatment, mean of 7 animals
[9] = BDF1 mice, day 11 = start of treatment, once daily for seven consecutive days, mean of 7 animals
[10] = BDF1 mice, treated once daily from day 11 for seven days, mean of 7 animals
[11] = BDF1 mice, treated once daily from day 11 for seven days, treatments terminated on day 18, mean of 7 animals
[12] = BDF1 mice, treatments terminated on day 18, mean of 7 animals

## CC[N+](C)(CC)CCOCc1ccc2sc3ccccc3c(=O)c2c1.[I-] [CCDTHT, N,N-diethyl-N-methyl-2-[(9-oxo-9H-thioxanthen-2-yl)methoxy]-ethanaminium iodide]
[1]; CCDTHT 4.6 mg/kg once daily day 11-22, day 11 = start, mean of 5 mice
  Tumor volumes; Day 11 after tumor transplantation: 0.83 cm^3
[1]; CCDTHT 4.6 mg/kg once daily day 11-22, mean of 5 mice
  Tumor volumes; Day 21 after tumor transplantation: 2.60 cm^3
[2]; [6]
  Tumor volumes; Day 14 after tumor transplantation: 1.20 cm^3
  Tumor volumes; Day 16 after tumor transplantation: 1.40 cm^3
  Tumor volumes; Day 18 after tumor transplantation: 1.90 cm^3
  Tumor volumes; Day 23 after tumor transplantation: 3.00 cm^3

## AT: human α1-antitrypsin, essentially pure, purified from commercial PALP preparation
[2]
  Tumor volumes; Day 8 after tumor transplantation: 0.42 cm^3
[2]; [7]
  Tumor volumes; Day 11 after tumor transplantation: 0.83 cm^3
  Tumor volumes; Day 13 after tumor transplantation: 1.60 cm^3
  Tumor volumes; Day 15 after tumor transplantation: 2.55 cm^3
  Tumor volumes; Day 18 after tumor transplantation: 3.48 cm^3
  Tumor volumes; Day 20 after tumor transplantation: 4.80 cm^3

## TF: human transferrin, partially iron-saturated, Sigma-Aldrich T 3309
[3]
  Number of lung colonies per lung*: doubling
[3]; listed as TF, local applications
  Number of lung colonies per lung*: 17 (10-21)
[3]; listed as TF, subcutaneous applications
  Number of lung colonies per lung*: 38 (29-44)
[2]; [8]
  Tumor volumes; Day 23 after tumor transplantation: 3.88 cm^3
[2]; [9]
  Tumor volumes; Day 11 after tumor transplantation: 0.71 cm^3
[2]; [10]
  Tumor volumes; Day 14 after tumor transplantation: 1.00 cm^3
  Tumor volumes; Day 16 after tumor transplantation: 1.13 cm^3
[2]; [11]
  Tumor volumes; Day 18 after tumor transplantation: 2.00 cm^3
[2]; [12]
  Tumor volumes; Day 21 after tumor transplantation: 3.12 cm^3
[2]
  Tumor volumes; Day 8 after tumor transplantation: 0.34 cm^3
[2]; [7]
  Tumor volumes; Day 11 after tumor transplantation: 0.79 cm^3
  Tumor volumes; Day 13 after tumor transplantation: 1.38 cm^3
  Tumor volumes; Day 15 after tumor transplantation: 2.19 cm^3
  Tumor volumes; Day 18 after tumor transplantation: 3.07 cm^3
  Tumor volumes; Day 20 after tumor transplantation: 3.83 cm^3
[4]
  Stimulatory effects on fibroblast proliferation in vitro after pre-heating: not altered

B1: Purified PALP: human placental alkaline phosphatase purified to homogeneity from commercial Sigma-Aldrich PALP; it is 'PALP' in Table 2, b31 and b104 (protein, UniProt P05187 23-506, looked up)
Alkaline phosphatase, …: IIPVEEENPDFWNREAAEALGAAKKLQPAQTAAKNLIIFLGDGMGVSTVTAARILKGQKKDKLGPEIPLAMDRFPYVALSKTYNVDKHVPDSGATATAYLCGVKGNFQTIGLSAAARFNQCNTTRGNEVISVMNRAKKAGKSVGVVTTTRVQHASPAGTYAHTVNRNWYSDADVPASARQEGCQDIATQLISNMDIDVILGGGRKYMFRMGTPDPEYPDDYSQGGTRLDGKNLVQEWLAKRQGARYVWNRTELMQASLDPSVTHLMGLFEPGDMKYEIHRDSTLDPSLMEMTEAALRLLSRNPRGFFLFVEGGRIDHGHHESRAYRALTETIMFDDAIERAGQLTSEEDTLSLVTADHSHVFSFGGYPLRGSSIFGLAPGKARDRKAYTVLLYGNGPGYVLKDGARPDVTESESGSPEYRQQSAVPLDEETHAGEDVAVFARGPQAHLVHGVQEQTFIAHVMAFAACLEPYTACDLAPPAGTTD
[3]
  Number of lung colonies per lung*: 16 (9-18)
[2]; [8]
  Tumor volumes; Day 23 after tumor transplantation: 3.63 cm^3
[2]; [9]
  Tumor volumes; Day 11 after tumor transplantation: 0.75 cm^3
[2]; [10]
  Tumor volumes; Day 14 after tumor transplantation: 1.16 cm^3
  Tumor volumes; Day 16 after tumor transplantation: 1.55 cm^3
[2]; [11]
  Tumor volumes; Day 18 after tumor transplantation: 2.13 cm^3
[2]; [12]
  Tumor volumes; Day 21 after tumor transplantation: 3.47 cm^3
[5]
  Pathological effects (cell death or immune cell infiltration) in liver, lung, heart, blood, kidney, muscle, brain, spleen, intestine: has not caused any significant pathological effects
